From patent publication US20150164855A1, “KETONE BODIES AND KETONE BODY ESTERS FOR MAINTAINING OR IMPROVING MUSCLE POWER OUTPUT” (priority 2012, published 2015)

Columns and labels:
Type in all cases: in vivo
[1] = Blood (R)-3-hydroxybutyrate concentration in rats following administration of ketones; conditions: for Peak Blood (R)-3-hydroxybutyrate: rats fed sour cream mix containing 2 g ketone in 10 ml water, blood before feeding and after 1, 3 and 6 hours
Description: Experiments were carried out to determine the concentration of blood (R)-3-hydroxybutyrate in rats following administration of various ketones. The ketones tested are set out in Table 4 below. The ketones were tasted in the same manner as Ketones 1 to 8 above.
(§1) Rats were each fed with a sour cream mix containing 2 g of a ketone as set out in […] in 10 ml water. Samples of blood from each rat were taken immediately prior to feeding, after 1 hour, 3 hours and 6 hours to determine the blood concentration of (R)-3-hydroxybutyrate. Two controls (Control A and Control B) were also tested by feeding with the same mix without the ketone added. The rats were humanely killed and dissected for visual inspection to determine whether pyloric constriction or other visible changes had occurred.
Blood was extracted and 0.1 ml of whole blood was added to 0.4 ml 3.6% perchloric acid subjected to vortex and then allowed to rest in ice for 30 minutes and then spun. 350 ul of acidic supernatant were then transferred to a new tube and 5 ul phenol red (0.05%), 20 ul 1 M Imidazole pH 7 and 3 M KHCO3 was added to neutralize the solution which was allowed to stand in ice for 30 minutes and then spun. A sample of the neutralized blood extract was then assayed for (R)-3-hydroxybutyrate.

[2] = Uptake of oligomeric ketones into the blood (Example 2)
Description: Procedures were carried out to determine the uptake of oligomeric ketones into the blood.

[3] = Single oral dose/response of blood (R)-3-hydroxybutyrate (Example 5); conditions: 192, 291, 395 and 573 mg/kg single dose
Description: (R)-3-hydroxybutyrate-R-1,3-butanediol monoester was administered in a single dose based on a fixed amount per kg of body weight of the subject to a number of subjects. The blood (R)-3-hydroxybutyrate concentration was determined over a period of time to determine the dose/response relationship between the oral single dose and the blood concentration of (R)-3-hydroxybutyrate. The procedure was repeated with different quantities of (R)-3-hydroxybutyrate-R-1,3-butanediol monoester to provide data on the dose/response relationship for (R)-3-hydroxybutyrate-R-1,3-butanediol monoester when administered at 192 mg/kg, 291 mg/kg, 395 mg/kg and 573 mg/kg.

[4] = Visual inspection of dissected rats for pyloric constriction or other visible changes; conditions: rats fed 2 g ketone, killed and dissected for visual inspection
Description: as §1, with “Samples of blood from each rat were taken immediately prior to feeding, after 1 hour, 3 hours and 6 hours to determine the blood concentration of (R)-3-hydroxybutyrate.” left out

Compound | Peak Blood (R)-3-hydroxybutyrate [1] | level of uptake to the blood relative to the linear/other oligomers tested (Ketones 9, 11 and 12) ([1]; rats, 2 g ketone) | blood level of (R)-3-hydroxybutyrate (peak) [2] | level of uptake to the blood relative to the triolide diester oligomer (Ketone 10) ([1]; rats, 2 g ketone) | blood (R)-3-hydroxybutyrate concentration after single oral dose [3] | Symptoms [4]
CC(O)CC(=O)OC(C)CC(=O)OC(C)CC(=O)OCC[C@@H](C)OC(=O)CC(C)OC(=O)CC(C)OC(=O)CC(C)O (stereo partly drawn) [Ketone 10, (R)-1,3-butanediol ditriolide ester] | about 1.5 mM | around 10 times | about 1.5 mM | – | – | –
(R)-3-hydroxybutyrate-(R)-1,3-butanediol [Ketone 8] | 6 mM | – | 6000 µM | around 4 times | levels not previously reported with other ketones | No pyloric constriction, no gas
